Assay results taken from PubChem BioAssay (NCI).
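GI50: concentration for 50% inhibition of growth. At the TGI there is no net growth.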

Experiments:
Experiment in all cases: NCI tumour cell line growth inhibition, 384-well format
A549 NSCLC = tested on: A549 NSCLC
ACHN renal = tested on: ACHN renal
CAKI-1 renal = tested on: CAKI-1 renal
CCRF-CEM leukemia = tested on: CCRF-CEM leukemia
COLO 205 colon = tested on: COLO 205 colon
DU-145 prostate = tested on: DU-145 prostate
EKVX NSCLC = tested on: EKVX NSCLC
HCC-2998 colon = tested on: HCC-2998 colon
HCT-116 colon = tested on: HCT-116 colon
HCT-15 colon = tested on: HCT-15 colon
HOP-92 NSCLC = tested on: HOP-92 NSCLC
HS 578T breast = tested on: HS 578T breast
HT29 colon = tested on: HT29 colon
IGROV1 ovarian = tested on: IGROV1 ovarian
K-562 leukemia = tested on: K-562 leukemia
KM12 colon = tested on: KM12 colon
LOX IMVI melanoma = tested on: LOX IMVI melanoma
M14 melanoma = tested on: M14 melanoma
MALME-3M melanoma = tested on: MALME-3M melanoma
MCF7 breast = tested on: MCF7 breast
MDA-MB-231 breast = tested on: MDA-MB-231 breast
MDA-MB-435 melanoma = tested on: MDA-MB-435 melanoma
MDA-MB-468 breast = tested on: MDA-MB-468 breast
NCI-H226 lung = tested on: NCI-H226 lung
NCI-H322M lung = tested on: NCI-H322M lung
NCI-H460 NSCLC = tested on: NCI-H460 NSCLC
NCI-H522 lung = tested on: NCI-H522 lung
NCI/ADR-RES ovarian = tested on: NCI/ADR-RES ovarian
OVCAR-3 ovarian = tested on: OVCAR-3 ovarian
OVCAR-5 ovarian = tested on: OVCAR-5 ovarian
PC-3 prostate = tested on: PC-3 prostate
RPMI-8226 leukemia = tested on: RPMI-8226 leukemia
RXF 393 renal = tested on: RXF 393 renal
SF-268 CNS = tested on: SF-268 CNS
SF-295 CNS = tested on: SF-295 CNS
SF-539 CNS = tested on: SF-539 CNS
SK-MEL-2 melanoma = tested on: SK-MEL-2 melanoma
SK-MEL-5 melanoma = tested on: SK-MEL-5 melanoma
SN12C renal = tested on: SN12C renal
SNB-19 CNS = tested on: SNB-19 CNS
SNB-75 CNS = tested on: SNB-75 CNS
SR leukemia = tested on: SR leukemia
SW-620 colon = tested on: SW-620 colon
TK-10 renal = tested on: TK-10 renal
UACC-257 melanoma = tested on: UACC-257 melanoma
UACC-62 melanoma = tested on: UACC-62 melanoma
UO-31 renal = tested on: UO-31 renal

Cc1cc2c(C(C)C)c(O)c(O)c(C=O)c2c(O)c1-c1c(C)cc2c(C(C)C)c(O)c(O)c(C=O)c2c1O (tested in a mixture with another compound)
GI50 (A549 NSCLC): 1.86 µM
TGI (A549 NSCLC): 4.5 µM
GI50 (ACHN renal): 2.05 µM
TGI (ACHN renal): 4.66 µM
GI50 (CAKI-1 renal): 2.53 µM
TGI (CAKI-1 renal): 5.93 µM
GI50 (CCRF-CEM leukemia): 1.14 µM
TGI (CCRF-CEM leukemia): 2.38 µM
GI50 (COLO 205 colon): 3.18 µM
TGI (COLO 205 colon): 9.01 µM
GI50 (DU-145 prostate): 1.86 µM
TGI (DU-145 prostate): 3.47 µM
GI50 (EKVX NSCLC): 1.85 µM
TGI (EKVX NSCLC): 3.97 µM
GI50 (HCC-2998 colon): 2.32 µM
TGI (HCC-2998 colon): 4.7 µM
GI50 (HCT-116 colon): 1.7 µM
TGI (HCT-116 colon): 3.12 µM
GI50 (HCT-15 colon): 1.83 µM
TGI (HCT-15 colon): 3.35 µM
GI50 (HOP-92 NSCLC): 1.78 µM
TGI (HOP-92 NSCLC): 4 µM
GI50 (HS 578T breast): 1.67 µM
TGI (HS 578T breast): 3.06 µM
GI50 (HT29 colon): 2.88 µM
TGI (HT29 colon): 9.04 µM
GI50 (IGROV1 ovarian): 1.95 µM
TGI (IGROV1 ovarian): 3.85 µM
GI50 (K-562 leukemia): 1.4 µM
TGI (K-562 leukemia): 2.87 µM
GI50 (KM12 colon): 1.5 µM
TGI (KM12 colon): 3.1 µM
GI50 (LOX IMVI melanoma): 1.83 µM
TGI (LOX IMVI melanoma): 3.42 µM
GI50 (M14 melanoma): 1.83 µM
TGI (M14 melanoma): 3.79 µM
GI50 (MALME-3M melanoma): 1.7 µM
TGI (MALME-3M melanoma): 3.47 µM
GI50 (MCF7 breast): 2.09 µM
TGI (MCF7 breast): 4.51 µM
GI50 (MDA-MB-231 breast): 1.88 µM
TGI (MDA-MB-231 breast): 4.15 µM
GI50 (MDA-MB-435 melanoma): 2.42 µM
TGI (MDA-MB-435 melanoma): 5.17 µM
GI50 (MDA-MB-468 breast): 1.68 µM
TGI (MDA-MB-468 breast): 3.29 µM
GI50 (NCI-H226 lung): 1.63 µM
TGI (NCI-H226 lung): 3.03 µM
GI50 (NCI-H322M lung): 1.67 µM
TGI (NCI-H322M lung): 4.14 µM
GI50 (NCI-H460 NSCLC): 1.9 µM
TGI (NCI-H460 NSCLC): 3.4 µM
GI50 (NCI-H522 lung): 1.86 µM
TGI (NCI-H522 lung): 4.1 µM
GI50 (NCI/ADR-RES ovarian): 1.83 µM
TGI (NCI/ADR-RES ovarian): 3.32 µM
GI50 (OVCAR-3 ovarian): 1.59 µM
TGI (OVCAR-3 ovarian): 3.46 µM
GI50 (OVCAR-5 ovarian): 2.29 µM
TGI (OVCAR-5 ovarian): 4.57 µM
GI50 (PC-3 prostate): 1.67 µM
TGI (PC-3 prostate): 3.52 µM
GI50 (RPMI-8226 leukemia): 1.42 µM
TGI (RPMI-8226 leukemia): 2.73 µM
GI50 (RXF 393 renal): 0.604 µM
TGI (RXF 393 renal): 1.96 µM
GI50 (SF-268 CNS): 1.66 µM
TGI (SF-268 CNS): 3.26 µM
GI50 (SF-295 CNS): 1.21 µM
TGI (SF-295 CNS): 2.71 µM
GI50 (SF-539 CNS): 1.72 µM
TGI (SF-539 CNS): 3.18 µM
GI50 (SK-MEL-2 melanoma): 1.97 µM
TGI (SK-MEL-2 melanoma): 3.61 µM
GI50 (SK-MEL-5 melanoma): 1.76 µM
TGI (SK-MEL-5 melanoma): 3.18 µM
GI50 (SN12C renal): 1.92 µM
TGI (SN12C renal): 3.73 µM
GI50 (SNB-19 CNS): 1.25 µM
TGI (SNB-19 CNS): 2.92 µM
GI50 (SNB-75 CNS): 2.26 µM
TGI (SNB-75 CNS): 4.37 µM
GI50 (SR leukemia): 1.8 µM
TGI (SR leukemia): 3.21 µM
GI50 (SW-620 colon): 2.07 µM
TGI (SW-620 colon): 3.98 µM
GI50 (TK-10 renal): 2.48 µM
TGI (TK-10 renal): 6.23 µM
GI50 (UACC-257 melanoma): 1.99 µM
TGI (UACC-257 melanoma): 3.8 µM
GI50 (UACC-62 melanoma): 1.81 µM
TGI (UACC-62 melanoma): 3.25 µM
GI50 (UO-31 renal): 2.73 µM
TGI (UO-31 renal): 7.08 µM
